Laboratory results from patent US20120082677A1, “COMPOSITIONS FOR THE TREATMENT OF HCV AND HBV” (priority 2010, published 2012).

What was measured:
[1] = Experiment 7 (second): injection in white mice for about 15 days; format: in vivo; details: 5 per group, injected for about 15 days
Excerpt: Experimental animals: We classified 20 white mice in 4 groups every group has 5 mice.

[2] = cited from earlier work

For `NC[C@H]1CC[C@H](C(=O)O)CC1` [tranexamic acid], the “survival of the mice” value [1] is given as “still alive”, the “time of peak plasma concentration” value ([2]; absorption via the GIT) is given as 2 h and the excretion ([2]; chemical part) is given as “excreted in the urine mainly as unchanged drug”. For the same compound, the protein binding ([2]; in vivo) was “very low” and the absorption ([2]; via the GIT) was “easily absorbed via the GIT”.
